Measurements as given in patent US8754054B2, “Antibacterial compounds, methods of making them, and uses thereof” (Albany Molecular Research, Inc., priority 2010, dated 2014).

What was measured:
Experiment in all cases: Antibacterial activity in vitro, NCCLS dilution method (Table 10)
Format in all cases: cell-based
E. coli 102 (ATCC 25922) = details: Gram −, QC strain
Source text: (§1) NCCLS standards for antimicrobial susceptibility testing using the dilution method were followed. See: Performance Standards for Antimicrobial Susceptibility Testing; Fourteenth Informational Supplement. NCCLS Document M100-S14 (ISBN 1-56238-516-X), 2004. NCCLS, 940 West Valley Road, Suite 1400, Wayne, Pa. 19087-1898 USA, 2004; Methods for Dilution Antimicrobial Susceptibility Tests for Bacteria that Grow Aerobically; Approved Standard—Sixth Edition. NCCLS document M7-A6 (IBSBN 1-56238-486-4), NCCLS, 940 West Valley Road, Suite 1400, Wayne, Pa. 19087-1898 USA, 2003, which are hereby incorporated by reference in their entirety.

E. coli 2269 = details: E. coli 2269, Gram −, ESBL-producer
Source text: as §1

E. faecalis 846 = details: E. faecalis 846, Gram +, VRE
Source text: as §1

E. faecium 700221 = details: E. faecium 700221, Gram +, VRE
Source text: as §1

H. influenzae 1742 = details: H. influenzae 1742, Gram −, ampR
Source text: as §1

[1] = tested on: H. parainfluenzae 2319 (ATCC 7901); details: Gram −
Source text: as §1

K. pneumoniae 2239 = details: K. pneumoniae 2239, Gram −
Source text: as §1

K. pneumoniae 2262 = details: K. pneumoniae 2262, Gram −, ampC, MDR
Source text: as §1

M. catarrhalis 557 = details: M. catarrhalis 557, Gram −
Source text: as §1

[2] = tested on: P. aeruginosa (ATCC 27853); details: Gram −
Source text: as §1

S. agalactiae 2033 = details: S. agalactiae 2033, Gram +
Source text: as §1

S. aureus (ATCC 29213) = details: Gram +, MSSA
Source text: as §1

S. aureus (ATCC 43300) = details: Gram +, MRSA
Source text: as §1

S. aureus (ATCC 6538) = details: Gram +, MSSA
Source text: as §1

S. aureus 1137 = details: S. aureus 1137, Gram +, MRSA
Source text: as §1

S. aureus 1651 = details: S. aureus 1651, Gram +, LRSA
Source text: as §1

S. aureus 1725 = details: S. aureus 1725, Gram +, LRSA
Source text: as §1

S. aureus 2012 = details: S. aureus 2012, Gram +, VISA
Source text: as §1

S. aureus 2018 = details: S. aureus 2018, Gram +, VISA
Source text: as §1

S. aureus 2144 = details: S. aureus 2144, Gram +, CA, USA 300 Strain
Source text: as §1

S. epidermidis 1452 = details: S. epidermidis 1452, Gram +, MRSE
Source text: as §1

S. epidermidis 1597 = details: S. epidermidis 1597, Gram +, MSSE
Source text: as §1

S. marcescens 1635 = details: S. marcescens 1635, Gram −
Source text: as §1

S. pneumoniae 376 = details: S. pneumoniae 376, Gram +, Quin-R
Source text: as §1

S. pneumoniae 933 = details: S. pneumoniae 933, Gram +, MDR
Source text: as §1

S. pneumoniae 940 = details: S. pneumoniae 940, Gram +, PRSP
Source text: as §1

S. pneumoniae 975 = details: S. pneumoniae 975, Gram +, PSSP
Source text: as §1

S. pyogenes 723 = details: S. pyogenes 723, Gram +
Source text: as §1

S. saprophyticus 495 = details: S. saprophyticus 495, Gram +
Source text: as §1

Measured: antibacterial activity (dilution susceptibility test)

COC(=O)c1c(C)cc2c(c1O)[C@]1(O)C(=O)c3cc4c(c(O)c3C(=O)[C@]1(OC)[C@H](O)C2)C(=O)C=C(N[C@H]1O[C@@H](C)[C@H](OC)[C@@H](O)[C@H]1OC)C4=O [Cmpd 12]
0.12: M. catarrhalis 557
≦0.06: E. faecalis 846 | S. agalactiae 2033 | S. aureus (ATCC 29213) | S. aureus 1137 | S. aureus 1651 | S. aureus 1725 | S. aureus 2012 | S. aureus 2018 | S. aureus 2144 | S. epidermidis 1452 | S. epidermidis 1597 | S. pneumoniae 376 | S. pneumoniae 933 | S. pneumoniae 940 | S. pneumoniae 975 | S. pyogenes 723 | S. saprophyticus 495
32: E. coli 102 (ATCC 25922) | E. coli 2269 | [2]
0.008: S. aureus (ATCC 43300) | S. aureus (ATCC 6538)
4: H. influenzae 1742
0.06: E. faecium 700221
8: [1]
64: K. pneumoniae 2239 | K. pneumoniae 2262 | S. marcescens 1635
